According to patent US6645918B1, “N-([1,2,4]triazoloazinyl)thiophenesulfonamide compounds and their use as herbicides” (Dow AgroSciences LLC, priority 2000, dated 2003):

Columns and labels:
Assay type in all cases: in vivo
[1] = system: blackgrass (Alopecurus myosuroides); assay: Preemergence herbicidal activity, blackgrass; settings: soil spray, visual after 3 weeks, 0 no injury, 100 complete kill or no germination
Description: (§1) The soil matrix was contained in plastic pots with a surface area of 161 square centimeters. When required to ensure good germination and healthy plants, a fungicide treatment and/or other chemical or physical treatment was applied. A weighed amount, determined by the highest rate to be tested, of each test compound was placed in a 20 mL glass vial and was dissolved in 8 mL of a 97:3 v/v (volume/volume) mixture of acetone and dimethyl sulfoxide to obtain concentrated stock solutions. […] The stock solutions obtained were diluted with a 99.9:0.1 mixture of water and Tween® 155 surfactant (ethoxylated sorbitan fatty acid ester) to obtain application solutions of known concentration. The solutions containing the highest concentration to be tested were prepared by diluting 4 mL aliquots of the stock solution with 8.5 mL of the mixture and lower concentrations were prepared by dilution of appropriate smaller portions of the stock solution. A 2.5 mL aliquot of each solution of known concentration was sprayed evenly onto the soil of each seeded pot using a Cornwall 5.0 mL glass syringe fitted with a TeeJet TN-3 hollow cone nozzle to obtain thorough coverage of the soil in each pot. Control pots were sprayed in the same manner with the aqueous mixture. A highest application rate of 4.48 kg/ha is achieved when 50 mg of test compound is employed. The treated pots and control pots were placed in a greenhouse with an approximately 15 hr photoperiod which was maintained at about 23-29° C. during the day and 22-28° C. during the night. Nutrients and water were added on a regular basis and supplemental lighting was provided with overhead metal halide 1000 Watt lamps as necessary. The water was added by top-irrigation. After 3 weeks the condition of the test plants that germinated and grew as compared with that of the untreated plants that germinated and grew was determined visually and scored on a scale of 0 to 100 percent where 0 corresponds to no injury and 100 corresponds to complete kill or no germination.

[2] = system: giant foxtail (Setaria faberi); assay: Postemergence herbicidal activity, giant foxtail; settings: foliar spray, visual after 2 weeks, 0 no injury, 100 complete kill
Description: (§2) Seeds of the desired test plant species were planted in Grace-Sierra MetroMix® 306 planting mixture, which typically has a pH of 6.0 to 6.8 and an organic matter content of about 30 percent, in plastic pots with a surface area of 64 square centimeters. When required to ensure good germination and healthy plants, a fungicide treatment and/or other chemical or physical treatment was applied. The plants were grown for 7-21 days in a greenhouse with an approximately 15 hr photoperiod which was maintained at about 23-29° C. during the day and 22-28° C. during the night. Nutrients and water were added on a regular basis and supplemental lighting was provided with overhead metal halide 1000 Watt lamps as necessary. The plants were employed for testing when they reached the first or second true leaf stage. A weighed amount of each test compound, determined by the highest rate to be tested, was placed in a 20 mL glass vial and was dissolved in 4 mL of a 97:3 v/v (volume/volume) mixture of acetone and dimethyl sulfoxide to obtain concentrated stock solutions. […] The concentrated stock solutions obtained were diluted with an aqueous mixture containing acetone, water, iso-propyl alcohol, dimethyl sulfoxide, Atplus 411F crop oil concentrate, and Triton X-155 surfactant (methylenebisdiamyl phenoxy polyethoxy ethanol) in a 48.5:39:10:1.5:1.0:0.02 v/v ratio to obtain spray solutions of known concentration. The solutions containing the highest concentration to be tested were prepared by diluting 2 mL aliquots of the stock solution with 13 mL of the mixture and lower concentrations were prepared by dilution of appropriate smaller portions of the stock solution. Approximately 1.5 mL aliquots of each solution of known concentration were sprayed evenly onto each of the test plant pots using a DeVilbiss atomizer driven by compressed air pressure of 2 to 4 psi (140 to 280 kilopascals) to obtain thorough coverage of each plant. Control plants were sprayed in the same manner with the aqueous mixture. In this test an application rate of 1 ppm results in the application of approximately 1 g/ha. The treated plants and control plants were placed in a greenhouse as described above and watered by sub-irrigation to prevent wash-off of the test compounds. After 2 weeks the condition of the test plants as compared with that of the untreated plants was determined visually and scored on a scale of 0 to 100 percent where 0 corresponds to no injury and 100 corresponds to complete kill.

[3] = system: cocklebur (Xanthium strumarium); assay: Postemergence herbicidal activity, cocklebur; settings: foliar spray, visual after 2 weeks, 0 no injury, 100 complete kill
Description: as §2

[4] = system: pigweed (Amaranthus retroflexus); assay: Preemergence herbicidal activity, pigweed; settings: soil spray, visual after 3 weeks, 0 no injury, 100 complete kill or no germination
Description: as §1

[5] = system: Rox orange sorghum (Sorghum bicolor); assay: Postemergence herbicidal activity, Rox orange sorghum; settings: foliar spray, visual after 2 weeks, 0 no injury, 100 complete kill
Description: as §2

wild oats (Avena fatua) [6] = assay: Postemergence herbicidal activity, wild oats; settings: foliar spray, visual after 2 weeks, 0 no injury, 100 complete kill
Description: as §2

[7] = system: morningglory (Ipomoea hederacea); assay: Postemergence herbicidal activity, morningglory; settings: foliar spray, visual after 2 weeks, 0 no injury, 100 complete kill
Description: as §2

[8] = system: pigweed (Amaranthus retroflexus); assay: Postemergence herbicidal activity, pigweed; settings: foliar spray, visual after 2 weeks, 0 no injury, 100 complete kill
Description: as §2

[9] = system: wild buckwheat (Polygonum convolvulus); assay: Postemergence herbicidal activity, wild buckwheat; settings: foliar spray, visual after 2 weeks, 0 no injury, 100 complete kill
Description: as §2

[10] = system: wild poinsettia (Euphorbia heterophylla); assay: Preemergence herbicidal activity, wild poinsettia; settings: soil spray, visual after 3 weeks, 0 no injury, 100 complete kill or no germination
Description: as §1

[11] = system: velvetleaf (Abutilion theophrasti); assay: Preemergence herbicidal activity, velvetleaf; settings: soil spray, visual after 3 weeks, 0 no injury, 100 complete kill or no germination
Description: as §1

[12] = system: giant foxtail (Setaria faberi); assay: Preemergence herbicidal activity, giant foxtail; settings: soil spray, visual after 3 weeks, 0 no injury, 100 complete kill or no germination
Description: as §1

[13] = system: lambsquarters (Chenopodium album); assay: Preemergence herbicidal activity, lambsquarters; settings: soil spray, visual after 3 weeks, 0 no injury, 100 complete kill or no germination
Description: as §1

wild oats (Avena fatua) [14] = assay: Preemergence herbicidal activity, wild oats; settings: soil spray, visual after 3 weeks, 0 no injury, 100 complete kill or no germination
Description: as §1

[15] = system: lambsquarters (Chenopodium album); assay: Postemergence herbicidal activity, lambsquarters; settings: foliar spray, visual after 2 weeks, 0 no injury, 100 complete kill
Description: as §2

[16] = system: morningglory (Ipomoea hederacea); assay: Preemergence herbicidal activity, morningglory; settings: soil spray, visual after 3 weeks, 0 no injury, 100 complete kill or no germination
Description: as §1

[17] = system: barnyardgrass (Echinochloa crus-galli); assay: Preemergence herbicidal activity, barnyardgrass; settings: soil spray, visual after 3 weeks, 0 no injury, 100 complete kill or no germination
Description: as §1

[18] = system: velvetleaf (Abutilion theophrasti); assay: Postemergence herbicidal activity, velvetleaf; settings: foliar spray, visual after 2 weeks, 0 no injury, 100 complete kill
Description: as §2

viola (Viola tricolor) = assay: Postemergence herbicidal activity, viola; settings: foliar spray, visual after 2 weeks, 0 no injury, 100 complete kill
Description: as §2

[19] = system: crabgrass (Digitaria sanguinalis); assay: Preemergence herbicidal activity, crabgrass; settings: soil spray, visual after 3 weeks, 0 no injury, 100 complete kill or no germination
Description: as §1

[20] = system: chickweed (Stellaria media); assay: Postemergence herbicidal activity, chickweed; settings: foliar spray, visual after 2 weeks, 0 no injury, 100 complete kill
Description: as §2

[21] = system: cocklebur (Xanthium strumarium); assay: Preemergence herbicidal activity, cocklebur; settings: soil spray, visual after 3 weeks, 0 no injury, 100 complete kill or no germination
Description: as §1

[22] = system: Rox orange sorghum (Sorghum bicolor); assay: Preemergence herbicidal activity, Rox orange sorghum; settings: soil spray, visual after 3 weeks, 0 no injury, 100 complete kill or no germination
Description: as §1

[23] = system: blackgrass (Alopecurus myosuroides); assay: Postemergence herbicidal activity, blackgrass; settings: foliar spray, visual after 2 weeks, 0 no injury, 100 complete kill
Description: as §2

Structure (SMILES): CCOc1cscc1S(=O)(=O)Nc1nc2nc(OC)cc(OC)n2n1 [Compound 12]
- ALOMY preemergence injury score 0-100 ([1]; 8.8 g/Ha): 100%
- SETFA postemergence injury score 0-100 ([2]; 15.6 ppm): 95%
- XANST postemergence injury score 0-100 ([3]; 15.6 ppm): 90%
- AMARE preemergence injury score 0-100 ([4]; 8.8 g/Ha): 100%
- SORBI postemergence injury score 0-100 ([5]; 15.6 ppm): 95%
- AVEFA postemergence injury score 0-100 (wild oats (Avena fatua) [6]; 15.6 ppm): 85%
- IPOHE postemergence injury score 0-100 ([7]; 15.6 ppm): 95%
- AMARE postemergence injury score 0-100 ([8]; 15.6 ppm): 95%
- POLCO postemergence injury score 0-100 ([9]; 15.6 ppm): 85%
- EPHHL preemergence injury score 0-100 ([10]; 8.8 g/Ha): 95%
- ABUTH preemergence injury score 0-100 ([11]; 8.8 g/Ha): 90%
- SETFA preemergence injury score 0-100 ([12]; 8.8 g/Ha): 100%
- CHEAL preemergence injury score 0-100 ([13]; 8.8 g/Ha): 100%
- AVEFA preemergence injury score 0-100 (wild oats (Avena fatua) [14]; 8.8 g/Ha): 100%
- CHEAL postemergence injury score 0-100 ([15]; 15.6 ppm): 90%
- IPOHE preemergence injury score 0-100 ([16]; 8.8 g/Ha): 80%
- ECHCG preemergence injury score 0-100 ([17]; 8.8 g/Ha): 100%
- ABUTH postemergence injury score 0-100 ([18]; 15.6 ppm): 95%
- VIOTR postemergence injury score 0-100 (viola (Viola tricolor); 15.6 ppm): 80%
- DIGSA preemergence injury score 0-100 ([19]; 8.8 g/Ha): 100%
- STEME postemergence injury score 0-100 ([20]; 15.6 ppm): 95%
- XANST preemergence injury score 0-100 ([21]; 8.8 g/Ha): 90%
- SORBI preemergence injury score 0-100 ([22]; 8.8 g/Ha): 100%
- ALOMY postemergence injury score 0-100 ([23]; 15.6 ppm): 60%

Structure (SMILES): COc1cscc1S(=O)(=O)Nc1nc2c(Cl)cnc(OC)n2n1 [Compound 14]
- ALOMY preemergence injury score 0-100 ([1]; 35 g/Ha): 100%
- SETFA postemergence injury score 0-100 ([2]; 31.3 ppm): 95%
- XANST postemergence injury score 0-100 ([3]; 31.3 ppm): 95%
- AMARE preemergence injury score 0-100 ([4]; 35 g/Ha): 80%
- SORBI postemergence injury score 0-100 ([5]; 31.3 ppm): 95%
- AVEFA postemergence injury score 0-100 (wild oats (Avena fatua) [6]; 31.3 ppm): 80%
- IPOHE postemergence injury score 0-100 ([7]; 31.3 ppm): 80%
- AMARE postemergence injury score 0-100 ([8]; 31.3 ppm): 95%
- POLCO postemergence injury score 0-100 ([9]; 31.3 ppm): 95%
- EPHHL preemergence injury score 0-100 ([10]; 35 g/Ha): 30%
- ABUTH preemergence injury score 0-100 ([11]; 35 g/Ha): 80%
- SETFA preemergence injury score 0-100 ([12]; 35 g/Ha): 100%
- CHEAL preemergence injury score 0-100 ([13]; 35 g/Ha): 98%
- AVEFA preemergence injury score 0-100 (wild oats (Avena fatua) [14]; 35 g/Ha): 100%
- CHEAL postemergence injury score 0-100 ([15]; 31.3 ppm): 100%
- IPOHE preemergence injury score 0-100 ([16]; 35 g/Ha): 60%
- ECHCG preemergence injury score 0-100 ([17]; 35 g/Ha): 98%
- ABUTH postemergence injury score 0-100 ([18]; 31.3 ppm): 90%
- VIOTR postemergence injury score 0-100 (viola (Viola tricolor); 31.3 ppm): 75%
- DIGSA preemergence injury score 0-100 ([19]; 35 g/Ha): 100%
- STEME postemergence injury score 0-100 ([20]; 31.3 ppm): 100%
- XANST preemergence injury score 0-100 ([21]; 35 g/Ha): 60%
- SORBI preemergence injury score 0-100 ([22]; 35 g/Ha): 100%
- ALOMY postemergence injury score 0-100 ([23]; 31.3 ppm): 80%
